The values that follow come from patent publication US20120202847A1, “Novel Tetrahydroisoquinoline Compounds” (priority 2009, published 2012).

The target of this experiment is T1, DGAT1 enzyme (Homo sapiens, UniProt O75907).
T1 construct: made in house
T1 sequence (O75907 1-488): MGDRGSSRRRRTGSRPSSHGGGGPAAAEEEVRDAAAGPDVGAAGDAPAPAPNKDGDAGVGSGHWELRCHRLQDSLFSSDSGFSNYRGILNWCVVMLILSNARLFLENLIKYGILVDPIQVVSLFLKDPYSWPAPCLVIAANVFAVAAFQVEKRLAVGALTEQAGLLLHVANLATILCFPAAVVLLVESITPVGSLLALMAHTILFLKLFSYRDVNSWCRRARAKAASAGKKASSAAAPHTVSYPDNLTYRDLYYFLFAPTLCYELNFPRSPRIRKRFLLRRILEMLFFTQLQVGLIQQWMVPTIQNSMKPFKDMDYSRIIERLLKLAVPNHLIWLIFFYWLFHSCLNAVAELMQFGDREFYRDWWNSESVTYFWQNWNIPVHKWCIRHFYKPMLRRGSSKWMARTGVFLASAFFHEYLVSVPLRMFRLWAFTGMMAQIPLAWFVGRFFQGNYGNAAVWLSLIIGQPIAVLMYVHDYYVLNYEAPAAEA
The experiment is described as follows: DGAT1 inhibitory activity test. Type of experiment: biochemical. To be noted: test compound concentration of 0.05 μg/ml; [14C]-oleoyl-CoA, 23° C., 30 minutes; read-out: Inhibitory Rate. On the procedure:
(1) Preparation of DGAT1 Enzyme
DGAT1 enzyme was prepared and stored according to the method described in US2007/0249620.
(2) DGAT1 Inhibitory Activity Test
A reaction solution having the following composition was incubated at room temperature (23° C.) for 30 minutes: 175 mM Tris-HCl (pH 8.0), 8 mM MgCl2, 1 mg/ml BSA, 0.3 mM 1,2-dioleoyl-sn-glycerol (10-fold concentration of EtOH solution, 10% added), 10 μM [^14C]-oleoyl-CoA (approximately 50 mCi/mmol), 0.5% Triton X-100, the DGAT1 enzyme (10 μg) obtained in Test Example 1(1), and a test compound or vehicle (DMSO/MeOH, 7:3 solution, 5% added), 50 μl in total. A reaction stop solution […] consisting of isopropanol/1-heptane/water (80:20:2, v/v/v) was added to the reaction solution and stirred. Subsequently, water […] and 1-heptane (100 μl) were added thereto and stirred. The 1-heptane layer […] was spotted onto a TLC plate and developed with a developing solvent consisting of 1-hexane/diethyl ether/acetic acid (85:15:1, v/v/v). The radioactivity of the triglyceride fraction was quantified using BAS2500 Bio Image Analyzer (FUJIFILM) and compared with the control. The inhibitory activity of the test compound was calculated according to the formula shown below. In this context, the radioactivity at no reaction (0 minute incubation) was used as background.
Inhibitory Rate=100−[(Radioactivity of sample supplemented with test compound)−(Background)]/[(Radioactivity of control)−(Background)]×100
On to `O=C(O)C[C@H]1CC[C@H](OC(=O)N2CCc3cc(NC(=O)Nc4ccc(C(F)(F)F)cc4F)ccc3C2)CC1` [Example 16, trans-6-[3-(2-fluoro-4-trifluoromethyl-phenyl)-ureido]-3,4-dihydro-1H-isoquinoline-2-carboxylic acid 4-carboxymethyl-cyclohexyl ester], for which the inhibition at 0.05 µg/mL was no less than 50%.
Then `O=C(O)C[C@H]1CC[C@H](OC(=O)N2CCc3cc(NC(=O)Nc4c(F)cccc4Cl)ccc3C2)CC1` [Example 13, trans-6-[3-(2-chloro-6-fluoro-phenyl)-ureido]-3,4-dihydro-1H-isoquinoline-2-carboxylic acid 4-carboxymethyl-cyclohexyl ester], with no less than 50%.
In the case of `Cc1ccc(NC(=O)Nc2ccc3c(c2)CCN(C(=O)O[C@H]2CC[C@H](CC(=O)O)CC2)C3)cc1F` [Example 30, trans-6-[3-(3-fluoro-4-methyl-phenyl)-ureido]-3,4-dihydro-1H-isoquinoline-2-carboxylic acid 4-carboxymethyl-cyclohexyl ester], the inhibition at 0.05 µg/mL is no less than 50%.
The result for `O=C(O)C[C@H]1CC[C@H](OC(=O)N2CCc3cc(NC(=O)Nc4cccc(Cl)c4)ccc3C2)CC1` [Example 46, trans-6-[3-(3-chloro-phenyl)-ureido]-3,4-dihydro-1H-isoquinoline-2-carboxylic acid 4-carboxymethyl-cyclohexyl ester] reads no less than 50%; that for `Cc1cc(C)cc(NC(=O)Nc2ccc3c(c2)CCN(C(=O)O[C@H]2CC[C@H](CC(=O)O)CC2)C3)c1` [Example 33, trans-6-[3-(3,5-dimethyl-phenyl)-ureido]-3,4-dihydro-1H-isoquinoline-2-carboxylic acid 4-carboxymethyl-cyclohexyl ester], no less than 50%; that for `O=C(O)C[C@H]1CC[C@H](OC(=O)N2CCc3cc(NC(=O)Nc4cc(F)cc(F)c4)ccc3C2)CC1` [Example 31, trans-6-[3-(3,5-difluoro-phenyl)-ureido]-3,4-dihydro-1H-isoquinoline-2-carboxylic acid 4-carboxymethyl-cyclohexyl ester], no less than 50%.
In the case of `O=C(O)C[C@H]1CC[C@H](OC(=O)N2CCc3cc(NC(=O)Nc4cc(Cl)ccc4F)ccc3C2)CC1` [Example 12, trans-6-[3-(5-chloro-2-fluoro-phenyl)-ureido]-3,4-dihydro-1H-isoquinoline-2-carboxylic acid 4-carboxymethyl-cyclohexyl ester], the inhibition at 0.05 µg/mL was no less than 50%.
The result for `O=C(O)C[C@H]1CC[C@H](OC(=O)N2CCc3cc(NC(=O)Nc4ccc(Cl)cc4F)ccc3C2)CC1` [Example 11, trans-6-[3-(4-chloro-2-fluoro-phenyl)-ureido]-3,4-dihydro-1H-isoquinoline-2-carboxylic acid 4-carboxymethyl-cyclohexyl ester] reads no less than 50%; that for `Cc1cc(NC(=O)Nc2ccc3c(c2)CCN(C(=O)O[C@H]2CC[C@H](CC(=O)O)CC2)C3)ccc1F` [Example 38, trans-6-[3-(4-fluoro-3-methyl-phenyl)-ureido]-3,4-dihydro-1H-isoquinoline-2-carboxylic acid 4-carboxymethyl-cyclohexyl ester], no less than 50%.
The result for `O=C(O)C[C@H]1CC[C@H](OC(=O)N2CCc3cc(NC(=O)Nc4cc(F)ccc4F)ccc3C2)CC1` [Example 4, trans-6-[3-(2,5-difluoro-phenyl)-ureido]-3,4-dihydro-1H-isoquinoline-2-carboxylic acid 4-carboxymethyl-cyclohexyl ester] reads no less than 50%.
As to `O=C(O)C[C@H]1CC[C@H](OC(=O)N2CCc3cc(NC(=O)Nc4cccc(Cl)c4F)ccc3C2)CC1` [Example 10, trans-6-[3-(3-chloro-2-fluoro-phenyl)-ureido]-3,4-dihydro-1H-isoquinoline-2-carboxylic acid 4-carboxymethyl-cyclohexyl ester], the inhibition at 0.05 µg/mL was no less than 50%.
The result for `O=C(O)C[C@H]1CC[C@H](OC(=O)N2CCc3cc(NC(=O)Nc4c(F)cccc4F)ccc3C2)CC1` [Example 5, trans-6-[3-(2,6-difluoro-phenyl)-ureido]-3,4-dihydro-1H-isoquinoline-2-carboxylic acid 4-carboxymethyl-cyclohexyl ester] reads no less than 50%; that for `O=C(O)C[C@H]1CC[C@H](OC(=O)N2CCc3cc(NC(=O)Nc4cccc(C(F)(F)F)c4F)ccc3C2)CC1` [Example 21, trans-6-[3-(2-fluoro-3-trifluoromethyl-phenyl)-ureido]-3,4-dihydro-1H-isoquinoline-2-carboxylic acid 4-carboxymethyl-cyclohexyl ester], no less than 50%.
Then `Cc1cc(Cl)ccc1NC(=O)Nc1ccc2c(c1)CCN(C(=O)O[C@H]1CC[C@H](CC(=O)O)CC1)C2` [Example 26], with no less than 50%; and `O=C(O)C[C@H]1CC[C@H](OC(=O)N2CCc3cc(NC(=O)Nc4ccc(Cl)cc4Cl)ccc3C2)CC1` [Example 24, trans-6-[3-(2,4-dichloro-phenyl)-ureido]-3,4-dihydro-1H-isoquinoline-2-carboxylic acid 4-carboxymethyl-cyclohexyl ester], with no less than 50%; and `COc1cccc(NC(=O)Nc2ccc3c(c2)CCN(C(=O)O[C@H]2CC[C@H](CC(=O)O)CC2)C3)c1F` [Example 42, trans-6-[3-(2-fluoro-3-methoxy-phenyl)-ureido]-3,4-dihydro-1H-isoquinoline-2-carboxylic acid 4-carboxymethyl-cyclohexyl ester], with no less than 50%.
As to `O=C(O)C[C@H]1CC[C@H](OC(=O)N2CCc3cc(NC(=O)Nc4cccc(F)c4F)ccc3C2)CC1` [Example 3, trans-6-[3-(2,3-difluoro-phenyl)-ureido]-3,4-dihydro-1H-isoquinoline-2-carboxylic acid 4-carboxymethyl-cyclohexyl ester], the inhibition at 0.05 µg/mL was no less than 50%.
Then `COc1ccc(NC(=O)Nc2ccc3c(c2)CCN(C(=O)O[C@H]2CC[C@H](CC(=O)O)CC2)C3)c(C)c1` [Example 19, trans-6-[3-(4-methoxy-2-methyl-phenyl)-ureido]-3,4-dihydro-1H-isoquinoline-2-carboxylic acid 4-carboxymethyl-cyclohexyl ester], with no less than 50%; and `COc1ccc(NC(=O)Nc2ccc3c(c2)CCN(C(=O)O[C@H]2CC[C@H](CC(=O)O)CC2)C3)cc1OC` [Example 44, trans-6-[3-(3,4-dimethoxy-phenyl)-ureido]-3,4-dihydro-1H-isoquinoline-2-carboxylic acid 4-carboxymethyl-cyclohexyl ester], with no less than 50%.
Then `O=C(O)C[C@H]1CC[C@H](OC(=O)N2CCc3cc(NC(=O)Nc4ccc(F)cc4C(F)(F)F)ccc3C2)CC1` [Example 18, trans-6-[3-(4-fluoro-2-trifluoromethyl-phenyl)-ureido]-3,4-dihydro-1H-isoquinoline-2-carboxylic acid 4-carboxymethyl-cyclohexyl ester], with no less than 50%; and `O=C(O)C[C@H]1CC[C@H](OC(=O)N2CCc3cc(NC(=O)Nc4ccc(Cl)cc4C(F)(F)F)ccc3C2)CC1` [Example 28, trans-6-[3-(4-chloro-2-trifluoromethyl-phenyl)-ureido]-3,4-dihydro-1H-isoquinoline-2-carboxylic acid 4-carboxymethyl-cyclohexyl ester], with no less than 50%.
Then `O=C(O)C[C@H]1CC[C@H](OC(=O)N2CCc3cc(NC(=O)Nc4ccc(F)cc4F)ccc3C2)CC1` [Example 1, trans-6-[3-(2,4-difluoro-phenyl)-ureido]-3,4-dihydro-1H-isoquinoline-2-carboxylic acid 4-carboxymethyl-cyclohexyl ester], with no less than 50%.
